Results: PubChem BioAssay AID1963441 (Molecular Pharmacology Branch, DTP, NCI, 2024)
pIC50: −log10 of the molar value. Values joined by “and” are separate entries in the source; they are usually repeats but may differ in a detail not shown here. Equal values may be shown once. Blank lines part the entries; values can stand above or below the compound they belong to.

Test system: NCI-H1876 complex spheroid growth, % test/control
Experiment: Anticancer human tumor NCI-H1876 cell line growth inhibition [Asc];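 also: compound exposure lasted 7 days starting three days after seeding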;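 as to viability, T/C: 100% = DMSO vehicle control wells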
Conditions: for viability, T/C: stronger effect = lower value
Summary of the method: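 Tumor cells were grown as multicellular spheroids with stromal HUVEC and mesenchymal stem cells and treated singly or in combination. Concentrations fell in half-log steps from the clinical Cmax, or from 10 microM where none was known.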

pIC50 (curve of first compound, second compound 0.00949 µM): < 5.52
pIC50 (curve of first compound, second compound 0.03 µM): < 5.52
pIC50 (curve of first compound, second compound 0.0949 µM): < 5.52
pIC50 (curve of first compound, second compound 0.3 µM): < 5.52
pIC50 (curve of first compound, second compound 0.949 µM): < 5.52
pIC50 (curve of first compound, second compound 3 µM): < 5.52
Structure (SMILES): Cc1nc(N2CCC3(CC2)COC(C)C3N)c(CO)nc1Sc1ccnc(N)c1Cl (stereo not given) + CCN1C(C(=O)NC23CCC(C(=O)O)(CC2)CC3)C(c2cccc(Cl)c2F)C2(C(=O)Nc3cc(Cl)ccc32)C12CCCCC2
viability, T/C (second compound 0.00949 µM, first compound 0.00949 µM): 89.1%
viability, T/C (second compound 0.00949 µM, first compound 0.03 µM): 90%
viability, T/C (second compound 0.00949 µM, first compound 0.0949 µM): 92.1%
viability, T/C (second compound 0.00949 µM, first compound 0.3 µM): 102%
viability, T/C (second compound 0.00949 µM, first compound 0.949 µM): 91.6%
viability, T/C (second compound 0.00949 µM, first compound 3 µM): 77.5%
viability, T/C (second compound 0.03 µM, first compound 0.00949 µM): 99.6%
viability, T/C (second compound 0.03 µM, first compound 0.03 µM): 104%
viability, T/C (second compound 0.03 µM, first compound 0.0949 µM): 118%
viability, T/C (second compound 0.03 µM, first compound 0.3 µM): 93.5%
viability, T/C (second compound 0.03 µM, first compound 0.949 µM): 92.4%
viability, T/C (second compound 0.03 µM, first compound 3 µM): 80.2%
viability, T/C (second compound 0.0949 µM, first compound 0.00949 µM): 103%
viability, T/C (second compound 0.0949 µM, first compound 0.03 µM): 113%
viability, T/C (second compound 0.0949 µM, first compound 0.0949 µM): 94.3%
viability, T/C (second compound 0.0949 µM, first compound 0.3 µM): 92.4%
viability, T/C (second compound 0.0949 µM, first compound 0.949 µM): 93.9%
viability, T/C (second compound 0.0949 µM, first compound 3 µM): 87.3%
viability, T/C (second compound 0.3 µM, first compound 0.00949 µM): 109%
viability, T/C (second compound 0.3 µM, first compound 0.03 µM): 104%
viability, T/C (second compound 0.3 µM, first compound 0.0949 µM): 93.4%
viability, T/C (second compound 0.3 µM, first compound 0.3 µM): 99.5%
viability, T/C (second compound 0.3 µM, first compound 0.949 µM): 88.7%
viability, T/C (second compound 0.3 µM, first compound 3 µM): 88.7%
viability, T/C (second compound 0.949 µM, first compound 0.00949 µM): 108%
viability, T/C (second compound 0.949 µM, first compound 0.03 µM): 106%
viability, T/C (second compound 0.949 µM, first compound 0.0949 µM): 103%
viability, T/C (second compound 0.949 µM, first compound 0.3 µM): 109%
viability, T/C (second compound 0.949 µM, first compound 0.949 µM): 105%
viability, T/C (second compound 0.949 µM, first compound 3 µM): 87%
viability, T/C (second compound 3 µM, first compound 0.00949 µM): 108%
viability, T/C (second compound 3 µM, first compound 0.03 µM): 97.9%
viability, T/C (second compound 3 µM, first compound 0.0949 µM): 74%
viability, T/C (second compound 3 µM, first compound 0.3 µM): 90.3%
viability, T/C (second compound 3 µM, first compound 0.949 µM): 90.1%
viability, T/C (second compound 3 µM, first compound 3 µM): 67%

pIC50 (curve of compound): 5.25 and 5.22 and 5.16
Structure (SMILES): C=C(F)C(=O)N1CCN(c2nc(OCC3CCCN3C)nc3c2CCN(c2cccc4cccc(Cl)c24)C3)CC1CC#N (stereo not given)
viability, T/C (compound 0.0316 µM): 94.3% and 102% and 97.8%
viability, T/C (compound 0.1 µM): 97.6% and 92.2% and 89.2%
viability, T/C (compound 0.316 µM): 101% and 95.3% and 93%
viability, T/C (compound 1 µM): 108% and 93% and 105%
viability, T/C (compound 3.16 µM): 98% and 90.9% and 102%

pIC50 (curve of first compound, second compound 0.0316 µM): < 5.00
pIC50 (curve of first compound, second compound 0.1 µM): < 5.00
pIC50 (curve of first compound, second compound 0.316 µM): < 5.00
pIC50 (curve of first compound, second compound 1 µM): 5.00
pIC50 (curve of first compound, second compound 3.16 µM): 5.07
pIC50 (curve of first compound, second compound 10 µM): 5.11
Structure (SMILES): O=C(c1cc(Cc2n[nH]c(=O)c3ccccc23)ccc1F)N1CCN(C(=O)C2CC2)CC1 + Cc1c(S(C)(=O)=O)c(-c2cc(F)cc(N3CCN(c4ccc(NS(=O)(=O)c5ccc(NC(CCN6CCC(C(=O)OCCCP(=O)(O)O)CC6)CSc6ccccc6)c(S(=O)(=O)C(F)(F)F)c5)cc4)CC3)c2)c(-c2ccc(Cl)cc2)n1C(C)C
viability, T/C (second compound 0.0316 µM, first compound 0.0316 µM): 99.6%
viability, T/C (second compound 0.0316 µM, first compound 0.1 µM): 99.1%
viability, T/C (second compound 0.0316 µM, first compound 0.316 µM): 92.8%
viability, T/C (second compound 0.0316 µM, first compound 1 µM): 101%
viability, T/C (second compound 0.0316 µM, first compound 3.16 µM): 97.2%
viability, T/C (second compound 0.0316 µM, first compound 10 µM): 74%
viability, T/C (second compound 0.1 µM, first compound 0.0316 µM): 100%
viability, T/C (second compound 0.1 µM, first compound 0.1 µM): 90.9%
viability, T/C (second compound 0.1 µM, first compound 0.316 µM): 98.2%
viability, T/C (second compound 0.1 µM, first compound 1 µM): 96.2%
viability, T/C (second compound 0.1 µM, first compound 3.16 µM): 95.9%
viability, T/C (second compound 0.1 µM, first compound 10 µM): 73.6%
viability, T/C (second compound 0.316 µM, first compound 0.0316 µM): 90.2%
viability, T/C (second compound 0.316 µM, first compound 0.1 µM): 96.7%
viability, T/C (second compound 0.316 µM, first compound 0.316 µM): 93.5%
viability, T/C (second compound 0.316 µM, first compound 1 µM): 97.9%
viability, T/C (second compound 0.316 µM, first compound 3.16 µM): 96%
viability, T/C (second compound 0.316 µM, first compound 10 µM): 61.2%
viability, T/C (second compound 1 µM, first compound 0.0316 µM): 111%
viability, T/C (second compound 1 µM, first compound 0.1 µM): 97.7%
viability, T/C (second compound 1 µM, first compound 0.316 µM): 90.1%
viability, T/C (second compound 1 µM, first compound 1 µM): 102%
viability, T/C (second compound 1 µM, first compound 3.16 µM): 99.2%
viability, T/C (second compound 1 µM, first compound 10 µM): 49.8%
viability, T/C (second compound 3.16 µM, first compound 0.0316 µM): 101%
viability, T/C (second compound 3.16 µM, first compound 0.1 µM): 94.5%
viability, T/C (second compound 3.16 µM, first compound 0.316 µM): 97.1%
viability, T/C (second compound 3.16 µM, first compound 1 µM): 96%
viability, T/C (second compound 3.16 µM, first compound 3.16 µM): 86.8%
viability, T/C (second compound 3.16 µM, first compound 10 µM): 43.6%
viability, T/C (second compound 10 µM, first compound 0.0316 µM): 95.2%
viability, T/C (second compound 10 µM, first compound 0.1 µM): 98.9%
viability, T/C (second compound 10 µM, first compound 0.316 µM): 86.1%
viability, T/C (second compound 10 µM, first compound 1 µM): 90.1%
viability, T/C (second compound 10 µM, first compound 3.16 µM): 95.3%
viability, T/C (second compound 10 µM, first compound 10 µM): 38.1%
